IC50 data for 83 molecules are collected here from PubChem BioAssay AID588780 (Sanford-Burnham Center for Chemical Genomics, 2011).

The source made the active and inactive calls.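 Rule for the calls: active = compounds whose fitted half-maximal concentration in the cell-protection dose series is at or below a set limit; inactive = the rest.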

This experiment concerns H9c2 cardiomyocytes, 2-deoxyglucose stress, ATP luminescence, 2 h. The experiment is described as follows: H9c2 cell survival under 2-deoxyglucose stress – uHTS hits, dose response (AID 588780).
One may read the IC50 as the concentration at which inhibition is half-maximal. Turning to `COc1ccc(NS(=O)(=O)c2cc(NC(=O)Cc3n[nH]c(=O)c4ccccc34)ccc2OC)cc1`, the IC50 was > 79 µM (inactive).

Regarding `Cc1ccc(-c2nn3c(C)nnc3s2)cc1NC(=O)COc1ccc(Cl)cc1`, the IC50 was > 79 µM (inactive). On to `CNS(=O)(=O)c1ccc2nc(NC(=O)/C=C/c3ccco3)sc2c1`, for which the IC50 is > 79 µM (inactive). `COc1cc(NC(=O)c2cc([N+](=O)[O-])ccc2NC(=O)CN2CCN(c3ccccn3)CC2)cc(OC)c1`: the IC50 was > 79 µM (inactive).

For `Cc1ccc(NCc2ccc(O)c3ncccc23)cc1C`, the IC50 was > 79 µM (inactive). As for `CCn1c(/C=N/NC(=O)c2ccc(OC)cc2)nc2ccccc21`, the figure is > 79 µM (inactive); as for `CC(C)(C)OC(=O)C[C@@H]1C/C=C\C[C@@H](CC(=O)N[C@@H](CO)Cc2ccccc2)C(=O)NC[C@@H](c2ccccc2)OC1=O`, 11.9 µM. As for `COc1cc(CCNc2ccc3nnc(-c4ccccc4)n3n2)cc(OC)c1OC`, the figure is 23.9 µM; as for `COc1ccc2c(c1OC)c(=O)n1c3ccc(OC(C)C(=O)NCCN4CCOCC4)cc3c3ccnc2c31` (stereo not drawn), 29.3 µM.

In the case of `O=c1[nH]c(N2CCN(c3ccccc3)CC2)nc2c1CCC2`, the IC50 is > 79 µM (inactive). As for `Cc1ccc2c(C)nc(Nc3nc(CSc4nc5ccccc5[nH]4)cc(=O)[nH]3)nc2c1`, the figure is > 79 µM (inactive); as for `COC(=O)N1C(=O)[C@](c2ccccc2)(C2CCCCC2)N1C(=O)OC`, 25.4 µM. For the molecule `COc1ccc(/C=N/NC(=O)c2ccc(COc3cccc4cccnc34)cc2)cc1OC`, the IC50 was > 79 µM (inactive). On to `Cc1ncc(CO)c2cc(C(=O)Nc3ccccc3Cl)c(=Nc3cccc(C(N)=O)c3)oc12`, for which the IC50 was > 79 µM (inactive). As for `COc1cc(-c2cc(NC(C)=O)c3ncc(-c4cc(OC)c(OC)c(OC)c4)n3c2)cc(OC)c1OC`, the figure is 5.28 µM. The figure for `COc1ccc(-c2cc(C(=O)NNC(=O)c3csc(N4CCOCC4)n3)c3ccccc3n2)cc1` is > 79 µM (inactive); for `Cc1c(Cl)cccc1NC(=O)CNC(=O)Cc1n[nH]c(=O)c2ccccc12` it is > 79 µM (inactive). As for `COc1cc(NC(=O)c2csc(-c3ccncc3)n2)cc(C(=O)Nc2cccc(C(F)(F)F)c2)c1`, the figure is 8.47 µM. As for `O=C(Nc1cccc2cccnc12)c1ccc2sc([C@H]3C[C@H](O)[C@@H](CO)O3)nc2c1`, the IC50 was 14.3 µM. Turning to `O=C(CSc1nc2ccccc2c(=O)[nH]1)N1CCN(S(=O)(=O)c2ccccc2)CC1`, the IC50 is > 79 µM (inactive). Consider `O=C(c1ccoc1)N1CCN(c2cc(-c3ccncc3)nc3cc(-c4cccc(Cl)c4)nn23)CC1`, for which the IC50 is > 79 µM (inactive).

In the case of `CC(=O)c1ccccc1OCC(O)CN1CCN(CCN2C(=O)c3cccc4cccc(c34)C2=O)CC1` (stereo not drawn), the IC50 is > 79 µM (inactive). The figure for `COCCn1c(=NC(=O)c2nc3ccccc3s2)sc2cc(S(C)(=O)=O)ccc21` is 28.3 µM; for `COc1ccc(C(=O)COc2ccccc2C(N)=O)cc1` it is > 79 µM (inactive); for `Cn1c(-n2c(CCCN3C(=O)c4ccccc4C3=O)nc3ccccc3c2=O)nc2ccccc21` it is 26.4 µM. With `CCOC(=O)Cc1csc(SCc2cc(=O)oc3cc(O)ccc23)n1`, the IC50 was 51.9 µM (inactive). The figure for `Cc1ccc(NC(=O)c2nc[nH]c2C(=O)NCCCCCCNC(=O)c2[nH]cnc2C(=O)Nc2ccc(C)cc2)cc1` is > 79 µM (inactive); for `CCOC(=O)c1ccc(-c2ccc3ncnc(NCc4csc(C)n4)c3c2)o1` it is > 79 µM (inactive); for `O=C(NCc1ccco1)C(c1ccccc1)N(C(=O)Cc1cccs1)c1ccccc1F` (stereo not drawn) it is > 79 µM (inactive). The figure for `COC(=O)c1ccccc1NC(=O)c1nc2nc(C)cc(C)n2n1` is > 79 µM (inactive); for `O=C(N/N=C/c1cccc(O)c1)c1cc(-c2ccc3c(c2)OCO3)n[nH]1` it is > 79 µM (inactive). With `Cc1c(OCC(=O)NCCN2CCOCC2)ccc2c1oc(=O)c1ccccc12`, the half-maximal inhibitory concentration (IC50) is 10.9 µM. Consider `COc1ccc2nc(Nc3nc(CSc4nc5ccccc5[nH]4)cc(=O)[nH]3)nc(C)c2c1`, for which the IC50 was > 79 µM (inactive). In the case of `CC1(c2ccccc2)NC(=O)N(CC(=O)Nc2cccc(/C=C/c3ccccn3)c2)C1=O` (stereo not drawn), the IC50 is 19 µM. The figure for `O=C(N/N=C/c1cn(-c2ccccc2)nc1-c1cccnc1)c1ccccc1` is 12.8 µM; for `CC1(C(=O)Nc2cccc(OC(F)(F)F)c2)Cc2c(-c3ccc(C(N)=O)cc3)ccnc2O1` (stereo not drawn) it is > 79 µM (inactive); for `O=C(CN(c1ccc2c(c1)OCCO2)S(=O)(=O)c1ccccc1)Nc1ccc2c(c1)OCO2` it is > 79 µM (inactive).

For the molecule `COc1ccc(OC)c(Nc2nc(N)nc(-c3cc4ccccc4o3)n2)c1`, the IC50 was > 79 µM (inactive). The figure for `COc1ccccc1CN(C)C(=O)c1cc(-c2cc(OC)c(OC)c(OC)c2)nc2ccccc12` is 6.57 µM. `CN(CC(=O)Nc1cccc(F)c1)C(=O)CCCc1nc2ccccc2c(=O)[nH]1`: the IC50 is > 79 µM (inactive). As for `CC1(C)CC2CC(C)(CN2C(=O)COC(=O)c2n[nH]c(=O)c3ccccc23)C1` (stereo not drawn), the IC50 is > 79 µM (inactive). As for `COc1ccc(NC(=O)c2cc3c(=O)n(C)c4ccccc4c3n2C)cc1OC`, the figure is > 79 µM (inactive); as for `Cc1cc(C(=O)COc2ccccc2C(N)=O)c(C)n1C`, 25.3 µM; as for `COc1ccc(OCC(O)Cn2c(Br)nc3c2c(=O)[nH]c(=O)n3C)cc1` (stereo not drawn), 38.7 µM (inactive).

Turning to `CCOC(=O)c1ccc(-c2ccc(/C=C(\C#N)C(=O)NCC3CCCO3)o2)cc1` (stereo not drawn), the IC50 is > 79 µM (inactive). The figure for `CCCCN1CC(COCc2ccccc2)Oc2cccc(OCCN3C(=O)[C@@H]4[C@H](C3=O)C3C=C[C@H]4C3)c2S1(=O)=O` (stereo partly drawn) is > 79 µM (inactive); for `Cc1ccc(-c2csc(NC(=O)Cn3[nH]c(=O)c4ccccc4c3=O)n2)cc1` it is 13.8 µM. Take `O=C(c1ccco1)N1CCN(Cc2nc3ccc([N+](=O)[O-])cc3c(=O)n2-c2ccccc2F)CC1`: the IC50 was > 79 µM (inactive). For the molecule `CCN1C(=O)[C@H]2[C@H]3CN=C(SCc4ccc(C#N)cc4)N3[C@@](Cc3ccccc3)(C(=O)OC)[C@H]2C1=O`, the IC50 was > 79 µM (inactive).

On to `O=C(N/N=C/c1cccc2cccnc12)[C@H]1C[C@@H]1c1ccccc1`, for which the IC50 was 29.2 µM. As for `O=c1[nH]c2cc(O)ccc2c2ccccc12`, the figure is > 79 µM (inactive). For `Cc1c(Cl)cnc(NC(=O)COC(=O)c2ccc([N+](=O)[O-])s2)c1Cl`, the IC50 was > 79 µM (inactive). The figure for `COc1ccc2[nH]c(=O)c(CN(CC3CCCO3)S(=O)(=O)c3ccccc3F)cc2c1` (stereo not drawn) is 15.9 µM; for `CC(=O)Nc1ccc(C(=O)Nc2nc(-c3ccccn3)cs2)cc1` it is 32.1 µM (inactive). For `COC(=O)c1ccc(CSc2ccc3nnc(-c4cccc(F)c4)n3n2)o1`, the IC50 was 27.4 µM. Consider `COc1ccc2o/c(=N/NC(=O)c3cccs3)c(C(N)=O)cc2c1`, for which the IC50 was 16.3 µM. The figure for `Cc1nn2c(-c3cccc(NC(=O)c4ccco4)c3)nnc2c2ccccc12` is > 79 µM (inactive); for `N#C/C(=C\Nc1ccc2c(c1)OCCO2)c1nc2ccccc2[nH]1` it is > 79 µM (inactive); for `Cc1nc(OCc2ccccc2)c2ccccc2n1` it is 9.43 µM. For the molecule `COc1cccc(/C=N/Nc2nc3ccccc3n3cnnc23)c1`, the IC50 is > 79 µM (inactive). With `COc1ccc(-c2cc(-c3nnc(COC(=O)C4CC4C)o3)c3ccccc3n2)cc1OC` (stereo not drawn), the IC50 was > 79 µM (inactive). Take `COc1ccc(-c2csc(NC(=O)c3cccc(N4C(=O)CCC4=O)c3)n2)cc1OC`: the IC50 is 10.6 µM.

`CC(OC(=O)Cc1n[nH]c(=O)c2ccccc12)C(=O)Nc1cccc([N+](=O)[O-])c1` (stereo not drawn): the IC50 was 44.4 µM (inactive).

For `COc1ccc(-c2cc(C(=O)Nc3ccccc3N3CCOCC3)c3ccccc3n2)cc1OC`, the IC50 was > 79 µM (inactive). As for `COc1ccc(-c2ccc3c(c2)S(=O)(=O)c2cccc(C(=O)N4CCN(c5ccccn5)CC4)c2C3=O)cc1OC`, the figure is 13.7 µM; as for `CCn1nc(C(=O)OCC(=O)c2c[nH]c3ccccc23)c2ccccc2c1=O`, 11.6 µM. The figure for `Cc1nn(-c2ccccc2)c(C)c1/C=N/NC(=O)c1cc(C(C)(C)C)[nH]n1` is 32.1 µM (inactive); for `O=C(Nc1nc(-c2cc(F)ccc2F)cs1)C1=NN(c2ccccc2)C(=O)CC1` it is > 79 µM (inactive); for `COc1cccc(-c2cnc3c(NC=O)cc(-c4cccc(NC(C)=O)c4)cn23)c1` it is > 79 µM (inactive). As to `CCOC(=O)C1=NN(C(=O)c2ccco2)C2(CC2)C1`, the IC50 was > 79 µM (inactive). The figure for `COc1ccc2[nH]c(=O)c(-c3nnn(-c4ccc(F)cc4)n3)cc2c1` is > 79 µM (inactive).

As to `CNC(=O)c1ccc(-c2sc3nc(N4CCOCC4)c4c(c3c2N)CC(C)(C)OC4)o1`, the IC50 is 13.2 µM. As for `O=C(Cc1n[nH]c(=O)c2ccccc12)NCc1ccccn1`, the IC50 is > 79 µM (inactive). As for `CC1CCCC(C)N1C(=O)CSc1nc2ccccc2c(=O)[nH]1` (stereo not drawn), the IC50 was > 79 µM (inactive).

`COc1cc(C(=O)N/N=C/c2sc(N3CCOCC3)nc2-c2ccccc2)cc(OC)c1OC`: the IC50 is 25.8 µM. Consider `C=CCc1ccccc1OCC(=O)N/N=C/c1ccc(OC(C)=O)cc1OC(C)=O`, for which the IC50 is > 79 µM (inactive). Regarding `COc1ccc(-n2c(/C=C/c3ccc(O)cc3)nc3ccccc3c2=O)cc1`, the IC50 is 15.8 µM. For the molecule `COc1cccc(Nc2nc3ccccc3n3nnnc23)c1`, the IC50 was 14.6 µM. The figure for `COc1ccc(NC(=O)c2cc(-c3ccc(OC)c(OC)c3)nc3ccccc23)c(OC)c1` is > 79 µM (inactive); for `O=CNc1cc(-c2ccc(C(=O)NC3CC3)cc2)cn2c(-c3ccc(F)c(Cl)c3)cnc12` it is > 79 µM (inactive); for `O=C(COC(=O)CCc1nc2ccccc2c(=O)[nH]1)Nc1ccc2c(c1)OCO2` it is > 79 µM (inactive). The figure for `CC(C)=NNc1cnnc2ccc([N+](=O)[O-])cc12` is 12.2 µM. As for `COc1cccc(-c2nn3c(-c4ccccn4)nnc3s2)c1`, the figure is 13.6 µM.
